Source: patent US20200399238A1, “THERAPEUTIC AURONES” (MIDDLE TENNESSEE STATE UNIVERSITY, priority 2016, published 2020)
Where two headings read alike, the source gives them in different places.

How the values were obtained:
TNFα = test: Cytokine response by ELISA, TNFα; assay type: cell-based, human; settings: for effect on TNFα expression: LPS-stimulated THP-1, ELISA
Procedure: (§1) Dexamethasone is a synthetic glucocorticoid that suppresses LPS-induced pro-inflammatory cytokine expression and was used as a control (Abraham, Lawrence et al. 2006). Supernatants were collected for human cytokine ELISAs and the manufacturer's protocol was followed to assess the cytokine response. Cells remaining after the supernatant collection were tested for relative viability by Alamar Blue cytotoxicity assay as previously described.

[1] = tested on: PMA-differentiated THP-1 cells; test: Alamar Blue cell viability assay, THP-1; assay type: cell-based, human; settings: THP-1 cells, 4 h with LPS, mean ± SD
Procedure: THP-1 cells were maintained in RPMI 1640 medium supplemented with 10% heat-inactivated FBS and 1% penicillin/streptomycin (complete culture medium) at 37° C. with 5% CO2 supplemented. Cell concentrations were adjusted to desired concentrations for each experiment by centrifugation at 500×g for 5 min and resuspended in complete culture medium with 100 nM of PMA. Cell concentration was adjusted to 5×10^5 cells/ml for all assays with the exception of 2.5×10^5 cells/ml were used for NF-κB nuclear translocation assay. Cells were seeded onto 96-, 24-, or 12-well plates and incubated for 48 to 72 h to allow for differentiation. Cells were washed with serum-free RPMI 1640 medium before each experiment to remove undifferentiated cells. […] Cells were seeded into tissue culture plates at 10% confluence and grown to 80% confluence within 72 h. For live cell microscopy, 1×10^5 cells/ml were seeded into 35 mm glass-bottom (MatTek) dishes 24 h prior to imaging. For luciferase assays, 1.2×10^5 cells/well were seeded into 24-well tissue culture-treated plates.
Following treatment, the relative cell viability was measured by Alamar Blue assay. For Alamar Blue assays, supernatants were replaced with culture medium containing 1× Alamar Blue reagent and incubated overnight. Cell viability was assessed by measuring relative fluorescent units (RFU) on the SpectraMax M2e microplate reader (Molecular Devices Inc., Sunnyvale, Calif., USA) at Ex 560 nm and Em 590 nm. The results were expressed as a percentage relative to LPS alone control cells. The effects of the vehicle control, DMSO, on cell viability were also assessed.
as §1

[2] = tested on: Leishmania amazonensis promastigotes expressing beta-lactamase; test: microbe, parasite or virus in culture; assay type: cell-based; settings: for IC50: Leishmania amazonensis
[3] = tested on: rat skeletal muscle cell line, L6; test: cells; assay type: cell-based; settings: read-out: IC50 Toxicity (L6)
[4] = tested on: Trypanosoma brucei brucei 427 cells; test: T. brucei culture and assay (PrestoBlue); assay type: cell-based; settings: for IC50: mean of 2(+) independent trials, read-out: IC50 T. brucei
[5] = tested on: Trypanosoma cruzi Tulahuen trypomastigotes; test: T. cruzi extracellular assay (CellTiter Glo); assay type: cell-based; settings: for IC50: Trypanosoma cruzi, TULAHUEN; for Selectivity L6/Tc: T. cruzi IC50 from extracellular assay (^b); for Selectivity L6/Tc (T. cruzi value from extracellular assay): L6 IC50 / T. cruzi IC50 (extracellular assay)
[6] = LPS-stimulated THP-1 cells, 20 μM, mean ± SD
[7] = Homo sapiens, LPS-stimulated THP-1 cells, mean ± SD, read-out: Average % TNF-α Inhibition
[8] = Table 2, L6 IC50 / L. amazonensis IC50
[9] = Table 2, L6 IC50 / T. brucei IC50
[10] = Table 1, ^b extracellular T. cruzi assay, read-out: IC50 T. cruzi
[11] = Table 2, extracellular assay, read-out: IC50 T. cruzi (footnote b: Extracellular T. cruzi assay)
[12] = LPS-stimulated THP-1 cells, 20 and 40 μM (one cell for all concentrations)

SMILES	melting point [°C]	effect on TNFα expression (TNFα)	Average % Viability (4 h with LPS) ([1]; 20 μM) [%]	IC50 ([2]; read-out: IC50 L. amaz.) [µM]	Selectivity L6/La ([2]; Table 1)	Selectivity L6/La [2, 8]	IC50 ([3]; Rattus norvegicus, Table 1) [µM]	IC50 ([4]; Trypanosoma brucei, Table 1) [µM]	IC50 [5, 10] [µM]	IC50 [5, 11] [µM]	also measured
COc1ccc(/C=C2\Oc3ccccc3C2=O)cc1O [aurone 9, (Z)-2-(3-hydroxy-4-methoxybenzylidene)benzofuran-3(2H)-one]	186 to 187	weaker activity	101.8 ± 2.1	–	–	–	–	–	–	–	Average % TNF-α Inhibition (TNFα; [6]): No Inhibition
O=C1/C(=C/c2ccc(CO)o2)Oc2ccccc21 [Aurone 1]	–	–	–	–	–	–	–	–	–	–	inhibition at 40 µM (TNFα; [7]): 51.8 ± 13.5%; inhibition at 80 µM (TNFα; Homo sapiens, LPS-stimulated THP-1 cells, 80 μM, mean ± SD, read-out: Average % TNF-α Inhibition): 93.8 ± 0.7%
COc1cc(/C=C2\Oc3ccccc3C2=O)ccc1O [Aurone 7, (Z)-2-(4-hydroxy-3-methoxybenzylidene)benzofuran-3(2H)-one]	–	–	–	–	–	–	–	–	–	–	inhibition at 40 µM (TNFα; [7]): 10.4 ± 4.7%
COc1ccc(/C=C2\Oc3ccc(C)cc3C2=O)c(OC)c1OC [Aurone 4004, (Z)-5-methyl-2-(2,3,4-trimethoxybenzylidene)benzofuran-3(2H)-one]	74 to 78	–	–	4.04	10.86	10.86	43.9	19.7	> 50	> 50	Selectivity L6/Tb ([4]; Table 1): 2.23; Selectivity L6/Tb [4, 9]: 2.23
O=C1/C(=C/c2ccccc2O)Oc2ccccc21 [aurone 4, (Z)-2-(2-hydroxybenzylidene)benzofuran-3(2H)-one]	–	low activity	99.4 ± 0.5	–	–	–	–	–	–	–	Average % TNF-α Inhibition (TNFα; [6]): No Inhibition
O=C1/C(=C/c2ccc(Br)cc2)Oc2ccc(Br)cc21 [Aurone 6002, (Z)-5-bromo-2-(4-bromobenzylidene)benzofuran-3(2H)-one]	126 to 130	–	–	11	>9.07	–	> 100	42	> 50	–	Selectivity L6/Tb ([4]; Table 1): >2.38
Cc1ccc2c(c1)C(=O)/C(=C/c1ccc(O)cc1)O2 [Aurone 4005, (Z)-2-(4-hydroxybenzylidene)-5-methylbenzofuran-3(2H)-one]	228 to 231	–	–	3.58	>27.93	>27.93	> 100	> 50	> 50	> 50	IC50 ([3]; Table 2, L6 mammalian cells): > 100 µM; IC50 ([4]; Table 2): > 50 µM
O=C1/C(=C/c2cccc(O)c2)Oc2ccccc21 [Aurone 5, (Z)-2-(3-hydroxybenzylidene)benzofuran-3(2H)-one]	–	–	94.6 ± 1.2	–	–	–	–	–	–	–	Average % TNF-α Inhibition (TNFα; LPS-stimulated THP-1 cells, 20, 25 and 40 μM (one cell for all concentrations)): No Inhibitions; Average % Viability (4 h with LPS) ([1]; 25 μM): 92.9 ± 1.4%; Average % Viability (4 h with LPS) ([1]; 40 μM): 90.9 ± 0.6%
O=C1/C(=C/c2ccco2)Oc2ccccc21 [compound 3]	–	complete loss of activity	–	–	–	–	–	–	–	–	Average % TNF-α Inhibition (TNFα; LPS-stimulated THP-1 cells, 12.5, 25 and 50 μM (one cell for all concentrations)): No Inhibitions; Average % Viability (4 h with LPS) ([1]; 12.5 μM): 104.3 ± 2.2%; Average % Viability (4 h with LPS) ([1]; 25 μM): 102.1 ± 0.8%; Average % Viability (4 h with LPS) ([1]; 50 μM): 92.2 ± 0.9%
COc1cc(/C=C2\Oc3ccccc3C2=O)ccc1O [aurone 7, (Z)-2-(4-hydroxy-3-methoxybenzylidene)benzofuran-3(2H)-one]	–	weaker activity	97.0 ± 0.3	–	–	–	–	–	–	–	Average % TNF-α Inhibition (TNFα; [6]): No Inhibition
O=C1/C(=C/c2ccc(O)cc2)Oc2ccccc21 [Aurone 6, (Z)-2-(4-hydroxybenzylidene)benzofuran-3(2H)-one]	–	–	99.8 ± 1.5	–	–	–	–	–	–	–	Average % TNF-α Inhibition (TNFα; [12]): No Inhibitions; Average % Viability (4 h with LPS) ([1]; 40 μM): 98.5 ± 0.1%
Cc1ccc(/C=C2\Oc3ccccc3C2=O)o1 [compound 2]	–	complete loss of activity	–	–	–	–	–	–	–	–	Average % TNF-α Inhibition (TNFα; LPS-stimulated THP-1 cells, 25, 50 and 100 μM (one cell for all concentrations)): No Inhibitions; Average % Viability (4 h with LPS) ([1]; 25 μM): 99.4 ± 9.3%; Average % Viability (4 h with LPS) ([1]; 50 μM): 118.3 ± 1.3%; Average % Viability (4 h with LPS) ([1]; 100 μM): 108.9 ± 2.0%
COc1cccc(/C=C2\Oc3ccccc3C2=O)c1O [aurone 8, (Z)-2-(2-hydroxy-3-methoxybenzylidene)benzofuran-3(2H)-one]	–	lack of activity	101.3 ± 2.6	–	–	–	–	–	–	–	Average % TNF-α Inhibition (TNFα; [12]): No Inhibitions
COc1ccc(/C=C2\Oc3ccccc3C2=O)cc1O [Aurone 9, (Z)-2-(3-hydroxy-4-methoxybenzylidene)benzofuran-3(2H)-one]	–	–	–	–	–	–	–	–	–	–	inhibition at 40 µM (TNFα; [7]): 14.9 ± 7.2%
O=C1/C(=C/c2ccc(C(F)(F)F)cc2)Oc2ccc(Br)cc21 [Aurone 6001, (Z)-5-bromo-2-(4-(trifluoromethyl)benzylidene)benzofuran-3(2H)-one]	120 to 125	–	–	7.29	>13.72	>13.72	> 100	> 50	> 50	> 50	IC50 ([3]; Table 2, L6 mammalian cells): > 100 µM; IC50 ([4]; Table 2): > 50 µM
Cc1ccc2c(c1)C(=O)/C(=C/c1ccccc1C(F)(F)F)O2 [Aurone 4006, (Z)-5-methyl-2-(2-(trifluoromethyl)benzylidene)benzofuran-3(2H)-one]	121 to 124	–	–	9.7	7.52	7.52	72.9	30.2	15.8	15.8	Selectivity L6/Tb ([4]; Table 1): 2.41; Selectivity L6/Tb [4, 9]: 2.41; Selectivity L6/Tc ([5]; Table 1): 4.62; Selectivity L6/Tc (T. cruzi value from extracellular assay) ([5]; Table 2): 4.62
O=C1/C(=C/c2ccccc2O)Oc2ccccc21 [Aurone 4, (Z)-2-(2-hydroxybenzylidene)benzofuran-3(2H)-one]	–	–	–	–	–	–	–	–	–	–	inhibition at 40 µM (TNFα; [7]): 15.4 ± 5.3%
COc1cc(OC)c2c(c1)O/C(=C\c1ccc(C#N)cc1)C2=O [Aurone 7002, (Z)-4-((4,6-dimethoxy-3-oxobenzofuran-2(3H)-ylidene)methyl)benonitrile]	220 to 223	–	–	2.08	39.68	39.68	82.5	> 50	> 50	> 50	IC50 ([2]; read-out: IC50 L. amaz. (footnote c: value obtained from one trial)): 2.08 µM; IC50 ([4]; Table 2): > 50 µM
Cc1ccc2c(c1)C(=O)/C(=C/c1ccc(C#N)cc1)O2 [Aurone 4001, (Z)-4-((5-methyl-3-oxobenzofuran-2(3H)-ylidene)methyl)benzonitrile]	148 to 152	–	–	38.4	1.98	1.98	76.2	2.66	31.7	31.7	Selectivity L6/Tb ([4]; Table 1): 28.66; Selectivity L6/Tb [4, 9]: 28.66; Selectivity L6/Tc ([5]; Table 1): 2.40; Selectivity L6/Tc (T. cruzi value from extracellular assay) ([5]; Table 2): 2.40
